Source: patent US8097758B2, “Isoserine derivatives for use as coagulation factor IXa inhibitors” (Sanofi-Aventis, priority 2006, dated 2012)

Biological target: T1, factor IXa (Homo sapiens, UniProt P00740)
T1 construct: purchased Calbiochem (Merck KGaA) 233290
Assay: Factor IXa enzyme assay (chromogenic substrate PEFA 3107)
Format: biochemical
Settings: factor IXa 277 nM final, pH 7.4, 15 min preincubation at room temperature, read at 405 nm, duplicate determination
Procedure: The prepared substances from the examples were tested for inhibition of the enzymatic activity of FIXa using the substrate PEFA 3107 (Pentapharm/Loxo; via S. Black GmbH, Baumstrasse 41, 47198 Duisburg, Germany; Pr. No. 095-20) and factor IXa (Calbiochem, Merck KGaA markets Calbiochem in Germany, Life Science & Analytics, 64293 Darmstadt; Pr. No. 233290). In this method, 28 μl of test buffer (50 mM α,α,α-tris(hydroxymethyl)methylamine (TRIS), 100 mM NaCl, 5 mM CaCl2, 0.1% bovine serum albumin, pH 7.4) and 10 μl of factor IXa (277 nM final concentration in the test batch) were added to 2 μl of 10 mM dimethyl sulfoxide solution of the respective test substance, and the mixture was incubated for 15 minutes at room temperature in a 96 half-well microtiter plate. The enzyme reaction was started by addition of 10 μl of substrate (1 mM stock solution in water). The time course of the reaction was monitored at 405 nm in a microtiter plate reader (SpectraMax plus 384; Molecular Devices) for 15 minutes.
The IC50 was calculated from the averaged values (duplicate determination) of a dilution series of the test substance with the aid of the software Grafit 4 (Erithacus Software, UK). The inhibition constants (Ki) were calculated according to the Cheng Prusoff equation Ki=IC50/(1+(S/Km), where S=concentration of the test substrate in the test and Km=Michaelis-Menten constant.

T1 sequence (P00740 227-461 limits assumed): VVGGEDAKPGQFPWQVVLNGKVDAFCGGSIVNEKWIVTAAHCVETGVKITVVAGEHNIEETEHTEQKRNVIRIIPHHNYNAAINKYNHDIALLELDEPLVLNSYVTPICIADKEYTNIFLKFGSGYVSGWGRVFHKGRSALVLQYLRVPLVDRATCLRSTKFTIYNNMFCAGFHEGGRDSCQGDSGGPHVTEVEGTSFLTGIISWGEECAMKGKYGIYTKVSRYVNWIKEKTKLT
T1 sequence (P00740 47-191 partner limits assumed): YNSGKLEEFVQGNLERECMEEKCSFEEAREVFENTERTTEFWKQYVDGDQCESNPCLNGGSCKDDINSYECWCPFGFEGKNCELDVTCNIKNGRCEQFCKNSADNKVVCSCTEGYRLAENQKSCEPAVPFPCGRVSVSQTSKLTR

Question: `CC(C)c1ccc(C(=O)NC(c2ccccc2)C(O)C(=O)Nc2ccc3nc(N)[nH]c3c2)cc1` (stereo not drawn) [Example 17, N-[2-(2-Amino-3H-benzimidazol-5-ylcarbamoyl)-2-hydroxy-1-phenylethyl]-4-isopropylbenzamide] was tested. Which IC50 did it give?
Answer: 280 nM

Question: How did the IC50 turn out when `Nc1nc2ccc(NC(=O)C(O)C(NC(=O)c3ccc(N4CCOCC4)cc3)c3ccccc3)cc2[nH]1` (stereo not drawn) [Example 53, N-[2-(2-Amino-3H-benzimidazol-5-ylcarbamoyl)-2-hydroxy-1-phenylethyl]-4-morpholin-4-yl-benzamide] was run?
Answer: 1340 nM

Question: With `CCc1ccc(C(=O)NC(c2ccccc2)C(O)C(=O)Nc2ccc3nc(N)[nH]c3c2)s1` (stereo not drawn) [Example 68, 5-Ethylthiophene-2-carboxylic acid [2-(2-amino-3H-benzimidazol-5-ylcarbamoyl)-2-hydroxy-1-phenylethyl]amide] as the compound, how does the IC50 read?
Answer: 730 nM

Question: How did the IC50 turn out when `Nc1nc2ccc(NC(=O)C(O)C(NC(=O)c3ccc(-c4cccs4)s3)c3ccccc3)cc2[nH]1` (stereo not drawn) [Example 81, [2,2′]Bithiophenyl-5-carboxylic acid [2-(2-amino-3H-benzimidazol-5-ylcarbamoyl)-2-hydroxy-1-phenylethyl]amide] was run?
Answer: 570 nM

Question: How did the IC50 turn out when `CCc1ccc(C(=O)NC(c2ccccc2)C(O)C(=O)Nc2ccc3c(N)nccc3c2)cc1` (stereo not drawn) [Example 87, N-[2-(1-Aminoisoquinolin-6-ylcarbamoyl)-2-hydroxy-1-phenylethyl]-4-ethylbenzamide] was run?
Answer: 140 nM

Question: For `COc1cc(OC)cc(C(NC(=O)c2ccc(C(C)C)cc2)C(O)C(=O)Nc2ccc3nc(N)[nH]c3c2)c1` (stereo not drawn) [Example 134, N-[2-(2-Amino-3H-benzimidazol-5-ylcarbamoyl)-1-(3,5-dimethoxyphenyl)-2-hydroxyethyl]-4-iso-propylbenzamide], which IC50 is on record?
Answer: 170 nM
